# Reference: US4578475A, “Novel D-homosteroids” (Hoffman-La Roche Inc., priority 1983, dated 1986)
# Experiments:
# [1] = biological target: T1, Δ^5 -isomerase/3β-hydroxysteroid dehydrogenase (Rattus norvegicus, UniProt P22071); assay: Inhibition of the formation of progesterone in vitro (14C-pregnenolone, rat ovary microsomes); format: biochemical; settings: 0.5 μg protein, 250 pmol 14C-pregnenolone, 0.4 mg NAD+, 30 minutes, 37° C., pH 7.4, read-out: IC50 (concentration of the test substance at which the enzyme activity amounts to 50% of the maximum value)
# T1 construct: from tissue; host or cells: rat ovary microsomes
# T1 sequence (P22071 1-373): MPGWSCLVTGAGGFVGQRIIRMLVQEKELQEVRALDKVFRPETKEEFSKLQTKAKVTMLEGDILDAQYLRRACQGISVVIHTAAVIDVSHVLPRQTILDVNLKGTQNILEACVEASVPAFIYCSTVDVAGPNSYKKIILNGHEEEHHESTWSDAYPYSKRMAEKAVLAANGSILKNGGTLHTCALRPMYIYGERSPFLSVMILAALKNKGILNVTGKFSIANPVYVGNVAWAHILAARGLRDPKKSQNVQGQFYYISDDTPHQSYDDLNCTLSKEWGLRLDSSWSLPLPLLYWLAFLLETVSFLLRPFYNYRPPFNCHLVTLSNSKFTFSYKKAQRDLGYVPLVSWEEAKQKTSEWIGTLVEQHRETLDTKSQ
# Procedure: The activity of the D-homosteroids of formula I as inhibitors of Δ^5 -isomerase/3β-hydroxysteroid dehydrogenase was determined in the following experimental procedures:
# Rat overies were homogenized in 0.05 M Na2 HPO4 buffer (pH 7.2) which contained 0.25 M sucrose and 0.05 M dithiothreitol. The microsomes obtained after centrifugation were suspended in 0.05 M Na2 HPO4 buffer (pH 7.4) which contained 0.001 M EDTA. This microsome preparation was assayed firstly for enzymatic activity by measuring the increase of the optical density at 340 nm by the reduction of NAD^+. Thereafter, aliquot portions (0.5 μg of protein) were incubated in 1.8 ml of buffer for 30 minutes at 37° C. with 250 pmol of ^14 C-pregnelonone, 0.4 mg of NAD^+ and different concentrations of the test substance dissolved in the minimum amounts of dimethyl sulphoxide. The reaction was interrupted by the addition of methylene chloride. After extraction and evaporation of the solvent, the radioactive metabolites were separated on silica gel-aluminium plates with benzene/acetone (85:15). The radioactivity was measured by means of a scintillation counter.
# [2] = tested on: pregnant female albino rats; assay: Interceptive activity in rats (pregnant rats, serum progesterone, living foetuses, resorptions, vacant implantation positions); format: in vivo, rat; settings: for Serum progesterone 3 h later: orally or intramuscularly on 10th day of pregnancy; for Living foetuses, n (number of animals) / Resorption, n (number of animals) / Vacant implantation positions, n (number of animals) / Vacant implantation positions, x (mean of the observations) / Living foetuses, x (mean of the observations) / Resorption, x (mean of the observations): orally or intramuscularly on 10th day, killed on 15th day
# Text: Female albino rats were kept under controlled conditions, the synchronicity of the cycle being monitored by daily vaginal douching and subsequent cytological investigation. At proestrus the animals were brought together with male, fertile rats. The successful insemination was checked on the following morning and this day was denoted as the 1st day of the pregnancy. The pregnant animals then received the test substances as a suspension in a standard vehicle (0.5% carboxymethylcellulose, 0.4% TWEEN 80, 0.9% benzyl alcohol and 0.9% NaCl in water) orally or intramuscularly on the 10th day. The animals were killed on the 15th day. The blood was collected and the uteri were investigated for living foetuses, resorptions and vacant implantation positions. The serum hormone concentrations were determined radio-immunologically.
IC50 [1] [nM],Compound,Serum progesterone 3 h later ([2]; 15 mg/kg) [ng/mL],"Living foetuses, n (number of animals) ([2]; 15 mg/kg)","Resorption, n (number of animals) ([2]; 15 mg/kg)","Vacant implantation positions, n (number of animals) ([2]; 15 mg/kg)","Vacant implantation positions, x (mean of the observations) ([2]; 15 mg/kg)",Serum progesterone 3 h later ([2]; 7.5 mg/kg) [ng/mL],"Living foetuses, n (number of animals) ([2]; 7.5 mg/kg)","Resorption, n (number of animals) ([2]; 7.5 mg/kg)","Resorption, x (mean of the observations) ([2]; 7.5 mg/kg)","Vacant implantation positions, n (number of animals) ([2]; 7.5 mg/kg)","Vacant implantation positions, x (mean of the observations) ([2]; 7.5 mg/kg)",also measured
6,"CCCCC1(O)C=CCC2C3CC=C4C(C)(C)c5[nH]ncc5CC4(C)C3CCC21C [Example 7, 17a-butyl-4,4-dimethyl-2'H-D-homo-androsta-2,5,16-trieno[3,2-c]pyrazol-17aβ-ol]",,,,,,,,,,,,
,"CC1(C)C(=O)[C@H](C#N)C[C@@]2(C)C1=CC[C@@H]1[C@@H]2CC[C@@]2(C)[C@H]1CC=C[C@@]21CCC(=O)O1 [Example 19, 2α-cyano-4,4-dimethyl-3-oxo-D-homo-17aα-pregna-5,16-diene-21,17a-carbolactone]",9,0,0,8,13,,,,,,,
,"CC1(C)C(=O)C(=CNO)C[C@@]2(C)C1=CC[C@@H]1[C@@H]2CC[C@@]2(C)[C@H]1CC=C[C@]2(C)O [Example 21, 17aβ-hydroxy-2-[(hydroxyamino)methylene]-4,4,17a-trimethyl-D-homo-androsta-5,16-dien-3-one]",17,1,0,6,13,24,3,6,10,2,10,"Living foetuses, x (mean of the observations) ([2]; 7.5 mg/kg): 6; Living foetuses, x (mean of the observations) ([2]; 15 mg/kg): 15"
6.5,"CC1(C)C(=O)[C@H](C#N)C[C@@]2(C)C1=CC[C@@H]1[C@@H]2CC[C@@]2(C)[C@H]1CC=C[C@]2(C)O [Example 17, 17aβ-hydroxy-4,4,17a-trimethyl-3-oxo-D-homo-androsta-5,16-diene-2α-carbonitrile]",,,,,,29,0,2,15,4,11,"Serum progesterone 3 h later ([2]; 3.75 mg/kg): 32 ng/mL; Living foetuses, n (number of animals) ([2]; 3.75 mg/kg): 2; Living foetuses, x (mean of the observations) ([2]; 3.75 mg/kg): 5; Resorption, n (number of animals) ([2]; 3.75 mg/kg): 5; Resorption, x (mean of the observations) ([2]; 3.75 mg/kg): 11; Vacant implantation positions, n (number of animals) ([2]; 3.75 mg/kg): 1; Vacant implantation positions, x (mean of the observations) ([2]; 3.75 mg/kg): 13"
,"CC1(C)C(=O)[C@H](C#N)C[C@@]2(C)C1=CC[C@@H]1[C@@H]2CC[C@@]2(C)[C@H]1CCC[C@]2(C)O [Example 14, 17aβ-hydroxy-4,4,17a-trimethyl-3-oxo-D-homo-androst-5-ene-2a-carbonitrile]",20,1,3,4,13,20,1,3,12,4,12,"Living foetuses, x (mean of the observations) ([2]; 7.5 mg/kg): 3; Living foetuses, x (mean of the observations) ([2]; 15 mg/kg): 12; Resorption, x (mean of the observations) ([2]; 15 mg/kg): 14"
7,"C[C@]1(O)C=CC[C@H]2[C@@H]3CC[C@@]45O[C@]4(C)C(=O)[C@H](C#N)C[C@]5(C)[C@H]3CC[C@@]21C [Example 25, 4α, 5-epoxy-17aβ-hydroxy-4,17a-dimethyl-3-oxo-D-homo-5α-androst-16-ene-2α-carbonitrile]",,,,,,,,,,,,
,"CC1(C)C2=CC[C@@H]3[C@H](CC[C@@]4(C)[C@H]3CC=C[C@]4(C)O)[C@@]2(C)Cc2cnoc21 [Example 2, 4,4,17a-trimethyl-D-homo-androsta-2,5,16-trieno[2,3-d]isoxazol-17aβ-ol]",35,0,0,6,12,39,0,0,,6,13,"Serum progesterone 3 h later ([2]; 3.75 mg/kg): 87 ng/mL; Living foetuses, n (number of animals) ([2]; 3.75 mg/kg): 3; Living foetuses, x (mean of the observations) ([2]; 3.75 mg/kg): 12; Resorption, n (number of animals) ([2]; 3.75 mg/kg): 2; Resorption, x (mean of the observations) ([2]; 3.75 mg/kg): 9; Vacant implantation positions, n (number of animals) ([2]; 3.75 mg/kg): 2; Vacant implantation positions, x (mean of the observations) ([2]; 3.75 mg/kg): 13"
6,"CC(=O)O[C@H]1C=CC[C@H]2[C@@H]3CC=C4C(C)(C)c5nn(C(C)=O)cc5C[C@]4(C)[C@H]3CC[C@]12C [Example 12, 1'-acetyl-4,4-dimethyl-1'H-D-homo-androsta-5,16-dieno[3,2-c]pyrazol-17aβ-yl acetate]",,,,,,,,,,,,
,"CC1(C)C2=CC[C@@H]3[C@H](CC[C@@]4(C)[C@H]3CCC[C@]4(C)O)[C@@]2(C)Cc2cnoc21 [Example 3, 4,4,17a-trimethyl-D-homo-androsta-2,5-dieno[2,3-d]-isoxazol-17aβ-ol]",29,4,6,3,13,25,4,5,6,2,3,"Living foetuses, x (mean of the observations) ([2]; 7.5 mg/kg): 9; Living foetuses, x (mean of the observations) ([2]; 15 mg/kg): 9; Resorption, x (mean of the observations) ([2]; 15 mg/kg): 3"

Compound,IC50 [1] [nM],Serum progesterone 3 h later ([2]; 15 mg/kg) [ng/mL],"Living foetuses, n (number of animals) ([2]; 15 mg/kg)","Resorption, n (number of animals) ([2]; 15 mg/kg)","Vacant implantation positions, n (number of animals) ([2]; 15 mg/kg)","Vacant implantation positions, x (mean of the observations) ([2]; 15 mg/kg)",Serum progesterone 3 h later ([2]; 7.5 mg/kg) [ng/mL],"Living foetuses, n (number of animals) ([2]; 7.5 mg/kg)","Resorption, n (number of animals) ([2]; 7.5 mg/kg)","Resorption, x (mean of the observations) ([2]; 7.5 mg/kg)","Vacant implantation positions, n (number of animals) ([2]; 7.5 mg/kg)","Vacant implantation positions, x (mean of the observations) ([2]; 7.5 mg/kg)",also measured
"CC1(C)C2=CC[C@@H]3[C@H](CC[C@@]4(C)[C@H]3CC=C[C@]4(C)O)[C@@]2(C)Cc2cn[nH]c21 [Example 6, 4,4,17a-trimethyl-2'H-D-homo-androsta-2,5,16-trieno[3,2-c]-pyrazol-17aβ-ol]",0.4,,,,,,,,,,,,
"CC1(C)C2=CC[C@H]3[C@@H]4CC=C[C@H](O)[C@@]4(C)CC[C@@H]3[C@@]2(C)Cc2cn[nH]c21 [Example 5, 4,4-dimethyl-2'H-D-homo-androsta-2,5,16-trieno[3,2-c]pyrazol-17aβ-ol]",0.8,,,,,,,,,,,,
"CC(=O)OC1=C(C#N)C[C@]2(C)[C@H]3CC[C@]4(C)[C@@H](OC(C)=O)C=CC[C@H]4[C@@H]3CC[C@]23O[C@H]13 [Example 22, 3,17aβ-diacetoxy-4α,5α-epoxy-D-homo-5α-androsta-2,16-diene-2-carbonitrile]",0.9,,,,,,,,,,,,
